Data as given in patent US20100009934A1, “BETA ADRENERGIC RECEPTOR AGONISTS FOR THE TREATMENT OF B-CELL PROLIFERATIVE DISORDERS” (CombinatoRx, Incorporated, priority 2008, published 2010).
Where “and” joins values, the source holds several entries; their conditions need not be identical. Equal values may be shown once. Read-outs that look alike come from different tables or passages of the source.

Experiments:
[1] = tested on: Human Multiple Myeloma Cells (MM.1S); conditions: 10 ng/ml IL-6 vs no IL-6 (Tables 52 and 53)
[2] = tested on: Human Multiple Myeloma Cells (MM.1S); test: cells; conditions: MM1.S
[3] = tested on: RPMI-8226 multiple myeloma (MM) xenograft; conditions: Day 19; 10 mg/kg salmeterol, 0.5 mg/kg bortezomib, or both
Method: Dexamethasone was administered by intraperitoneal (IP) injection daily for thirty-six treatments (QD×36). Bortezomib was injected intravenously (IV) every third day for six treatments (Q3D×6).
(§1) Group 1—Vehicle (90% PBS+10% EtOH)
Significant endpoints included mean tumor growth inhibition (TGI) or regression, animal weight loss, and potential toxicity. […] Animals were implanted with cancer cells harvested from tissue culture and allowed to establish tumors in SCID mice. Treatment initiated when the mean tumor volume reached 137 mm^3 in size.

[4] = tested on: Diffuse Large B-Cell Lymphoma Cell Line OCI-Ly10; test: Anti-proliferation assay (ATPLite, 72 hours), OCI-ly10; assay type: cell-based; conditions: DEX μM r7-r15: 0.101, 0.033666667, 0.011222222, 0.003740741, 0.001246914, 0.000415638, 0.000138546, 0.000046182, 0
From the text: Combinations were ranked initially by Additivity Excess Volume, which is defined as ADD Volume=ΣCX, CY (Idata−ILoewe), where ILoewe(CX, CY) is the inhibition that satisfies (CX/ECX)+(CY/ECY)=1, and ECX,Y are the effective concentrations at ILoewe for the single agent curves.

[5] = tested on: Human Multiple Myeloma Cells (ANBL-6); test: Anti-proliferation assay (ATPLite, 72 hours), ANBL-6; conditions: for Antiproliferative Activity: Salmeterol 0.00000506 μM
[6] = tested on: Human Multiple Myeloma Cells (MM.1S) cultured in the presence of BAR agonist for one month; test: Antiproliferative activity on MM.1S cultured one month in the presence of salmeterol or salbutamol; assay type: cell-based; conditions: for percent inhibition of cell proliferation: MM.1S cultured in Salmeterol for one month (final 64 nM), DEX (μM): 2.0, 0.666, 0.23, 0.074, 0.024, 0.0082, 0.00274, 0.0009, 0
From the text: A recurrent problem in cancer therapy is that prolonged exposure of tumor cells to chemotherapeutic agents can generate cells resistant to agents that initially have antiproliferative or cell killing activity. […] Cells cultured for one month in the presence of BAR agonist were washed to remove drug and put into 384 well plates for 9×9 dose matrix combination screening with BAR agonists and dexamethasone.

[7] = tested on: Human Multiple Myeloma Cells (MM.1S); test: Anti-proliferation assay (ATPLite, 72 hours), MM.1S
[8] = tested on: multiple myeloma tumor cells from patients; test: MTT cell viability assay, multiple myeloma patient tumor cells; conditions: Homo sapiens, 48 h
From the text: Tumor cells were obtained via bone marrow aspirates and affinity selected using CD138-linked magnetic beads.

[9] = tested on: Human Multiple Myeloma Cells (EJM); test: Anti-proliferation assay (ATPLite, 72 hours), EJM; conditions: DEX μM r7-r15: 2.03, 0.675, 0.225, 0.075, 0.025, 0.00834, 0.00278, 0.00093, 0
RPMI-8226 cells = conditions: 2 nM salmeterol for 5 hours, soft agar, three weeks; 740 colonies without drugs
Method: The effect of BAR agonists on cells grown in soft agar was also determined. This approach allows the measurement of long term cell viability after single agent or combination treatment. […] Cells were washed and plated in soft agar. After three weeks colonies were counted to determine cell viability.

[10] = tested on: human multiple myeloma xenografts (MM1S); test: MM.1S xenograft model in SCID mice; assay type: in vivo, mouse; conditions: Dex 1 mg/kg or salmeterol 10 mg/kg, subcutaneous daily
Method: The human multiple myeloma cell line MM1S was injected subcutaneously into the flanks of SCID mice. Five days following the injection of MM1S cells, animals were randomized into the following four treatment groups (n=6-7) based on tumor size.
as §1
The prepared test, positive, and negative control substances were administered via subcutaneous injection daily for up to 85 Days. During the treatment period, tumor volume and animal body weights were measured 3 times per week (Monday, Wednesday and Friday). The animals were removed from the study if there was overall poor body condition, tumor volume above 3000 mm^3, body weight loss greater than or equal to 20% or ulcerated tumors.
The slope of the tumor volume growth of each animal was calculated from the initial study day until the day each animal was removed from the study. From these slopes the mean change in tumor volume per study day was calculated.

[11] = read-out: percent inhibition of cell proliferation, +10 ng/ml IL-6, Salmeterol […], DEX (μM) by row: r9 0.15, r10 0.076, r11 0.038, r12 0.019, r13 0.0096, r14 0
[12] = read-out: percent inhibition of cell proliferation, salmeterol […], 10 ng/mL IL-6
[13] = read-out: percent inhibition of cell proliferation, salmeterol […], no IL-6
[14] = Homo sapiens, MM1.S, read-out: percent inhibition of cell proliferation
[15] = read-out: Reduction in Cell Viability

**Q.** Which “effect of IL-6 on antiproliferative activity” value [1] does the source give for `OCc1cc(C(O)CNCCCCCCOCCCCc2ccccc2)ccc1O` (stereo not drawn) [salmeterol] here?
**A.** The value was “increased at each concentration tested”.

**Q.** What about the inhibition at 32 pM [2, 11] of the same compound?
**A.** Its inhibition at 32 pM is 22%.

**Q.** And the inhibition at […] [2, 11]?
**A.** The inhibition at […] was 52%.

**Q.** What about the inhibition at 32 pM ([2]; read-out: percent inhibition of cell proliferation, no IL-6, Salmeterol […], DEX (μM) by row: r9 0.15, r10 0.076, r11 0.038, r12 0.019, r13 0.0096, r14 0) of the same compound?
**A.** Its inhibition at 32 pM is 21%.

**Q.** And the inhibition at 100 fM ([2]; read-out: percent inhibition of cell proliferation, salmeterol 0.1 pM, 10 ng/mL IL-6)?
**A.** Its inhibition at 100 fM is 19%.

**Q.** And the inhibition at 100 fM ([2]; read-out: percent inhibition of cell proliferation, salmeterol 0.1 pM, no IL-6)?
**A.** Its inhibition at 100 fM is 11%.

**Q.** What about the inhibition at 200 fM ([2]; read-out: percent inhibition of cell proliferation, salmeterol 0.2 pM, 10 ng/mL IL-6) of the same compound?
**A.** Its inhibition at 200 fM is 30%.

**Q.** What about the inhibition at 200 fM ([2]; read-out: percent inhibition of cell proliferation, salmeterol 0.2 pM, no IL-6) of the same compound?
**A.** Its inhibition at 200 fM is 25%.

**Q.** And the inhibition at 400 fM ([2]; read-out: percent inhibition of cell proliferation, salmeterol 0.4 pM, 10 ng/mL IL-6)?
**A.** Its inhibition at 400 fM is 36%.

**Q.** What about the inhibition at 400 fM ([2]; read-out: percent inhibition of cell proliferation, salmeterol 0.4 pM, no IL-6) of the same compound?
**A.** The inhibition at 400 fM was 30%.

**Q.** And the inhibition at […] ([2]; read-out: percent inhibition of cell proliferation, salmeterol 160 pM, 10 ng/mL IL-6)?
**A.** Its inhibition at […] is 59%.

**Q.** And the inhibition at […] ([2]; read-out: percent inhibition of cell proliferation, salmeterol 160 pM, no IL-6)?
**A.** Its inhibition at […] is 50%.

**Q.** And the inhibition at […] ([2]; read-out: percent inhibition of cell proliferation, salmeterol 320 pM, 10 ng/mL IL-6)?
**A.** Its inhibition at […] is 66%.

**Q.** And the inhibition at […] ([2]; read-out: percent inhibition of cell proliferation, salmeterol 320 pM, no IL-6)?
**A.** Its inhibition at […] is 59%.

**Q.** What about the inhibition at 25 fM [2, 12] of the same compound?
**A.** Its inhibition at 25 fM is 2.8%.

**Q.** And the inhibition at 51 fM [2, 12]?
**A.** Its inhibition at 51 fM is 8.6%.

**Q.** What about the inhibition at 810 fM [2, 12] of the same compound?
**A.** Its inhibition at 810 fM is 54%.

**Q.** And the inhibition at 25 fM [2, 13]?
**A.** The inhibition at 25 fM was 5%.

**Q.** And the inhibition at 51 fM [2, 13]?
**A.** Its inhibition at 51 fM is 6.7%.

**Q.** What about the inhibition at 810 fM [2, 13] of the same compound?
**A.** Its inhibition at 810 fM is 43%.

**Q.** And the “tumor growth inhibition (TGI)” value [3]?
**A.** The value was 37%.

**Q.** What about the “Antiproliferative Activity” value ([4]; Salmeterol 0.001055 μM) of the same compound?
**A.** The value was 5.9.

**Q.** What about the “Antiproliferative Activity” value ([4]; Salmeterol 0.003165 μM) of the same compound?
**A.** The value was 6.3.

**Q.** And the “Antiproliferative Activity” value ([4]; Salmeterol 0.009494 μM)?
**A.** The value was 9.1.

**Q.** What about the “Antiproliferative Activity” value ([4]; Salmeterol 0.028481 μM) of the same compound?
**A.** Its value is −0.6.

**Q.** What about the “Antiproliferative Activity” value ([4]; Salmeterol 0.085444 μM) of the same compound?
**A.** The value was 6.3.

**Q.** And the “Antiproliferative Activity” value ([4]; Salmeterol 0.256333 μM)?
**A.** The value was 27.

**Q.** And the “Antiproliferative Activity” value ([5]; DEX μM r7-r15: 2.03, 0.675, 0.225, 0.075, 0.025, 0.00834, 0.00278, 0.00093, 0)?
**A.** The value was 18.6.

**Q.** And the “Antiproliferative Activity” value ([5]; LEN μM r7-r15: 4.04, 2.02, 1.01, 0.505, 0.253, 0.126, 0.0632, 0.0316, 0)?
**A.** Its value is 34.7.

**Q.** And the “percent inhibition of cell proliferation” value ([5]; Trequinsin 0 μM (single agent), SAL (μM): 0.0203, 0.0101, 0.00506, 0.00253, 0.00127, 0.000633, 0.000316, 0.000158)?
**A.** The value was 54% and 55.7% and 58.4% and 54.8% and 50.7% and 58% and 54.7% and 55%.

**Q.** And the “percent inhibition of cell proliferation” value ([6]; Salmeterol 0.00008 μM)?
**A.** Its value is 6.1%.

**Q.** And the “percent inhibition of cell proliferation” value ([6]; Salmeterol 0.02 μM)?
**A.** Its value is 5.6%.

**Q.** And the inhibition of proliferation ([6]; […] salmeterol, cells cultured one month in salmeterol (64 nM), Table 48)?
**A.** The inhibition of proliferation was 4.1%.

**Q.** What about the “single agent sensitivity after culture in 64 nM salmeterol” value ([6]; cells cultured one month in salmeterol (Table 48)) of the same compound?
**A.** Its value is “no longer sensitive”.

**Q.** And the inhibition at 9.1 pM [7, 14]?
**A.** Its inhibition at 9.1 pM is 4.9%.

**Q.** What about the inhibition at 27 pM [7, 14] of the same compound?
**A.** The inhibition at 27 pM was 7.1%.

**Q.** What about the inhibition at 80 pM [7, 14] of the same compound?
**A.** Its inhibition at 80 pM is 25%.

**Q.** And the inhibition at 0.02 µM [7, 14]?
**A.** The inhibition at 0.02 µM was 59%.

**Q.** And the “percent inhibition of cell proliferation” value ([7]; SAHA 0 μM (single agent), Salmeterol (nM) by row: r7 0.011, r8 0.0036, r9 0.0012, r10 0.0004, r11 0.00013, r12 0.000045)?
**A.** The value was 70%.

**Q.** And the “Antiproliferative Activity” value ([7]; Salmeterol 0.00000506 μM, BORT μM r7-r15: 0.0405, 0.0203, 0.0101, 0.00506, 0.00253, 0.00127, 0.000633, 0.000316, 0)?
**A.** The value was 16.9%.

**Q.** And the cytotoxicity at 12.5 pM [8, 15]?
**A.** The cytotoxicity at 12.5 pM was -0.2%.

**Q.** What about the cytotoxicity at 25 pM [8, 15] of the same compound?
**A.** Its cytotoxicity at 25 pM is 12%.

**Q.** And the cytotoxicity at 50 pM [8, 15]?
**A.** The cytotoxicity at 50 pM was 13%.

**Q.** What about the cytotoxicity at 0.0001 µM [8, 15] of the same compound?
**A.** The cytotoxicity at 0.0001 µM was 35%.

**Q.** And the cytotoxicity at 0.0002 µM [8, 15]?
**A.** The cytotoxicity at 0.0002 µM was 40%.

**Q.** What about the cytotoxicity at 0.0004 µM [8, 15] of the same compound?
**A.** Its cytotoxicity at 0.0004 µM is 38%.

**Q.** And the cytotoxicity at 0.0008 µM [8, 15]?
**A.** The cytotoxicity at 0.0008 µM was 44%.

**Q.** What about the cytotoxicity at 0.0004 µM ([8]; read-out: activity (reduction in cell viability)) of the same compound?
**A.** Its cytotoxicity at 0.0004 µM is 38%.

**Q.** What about the viability at 0.001 µM ([8]; read-out: tumor cell viability) of the same compound?
**A.** The viability at 0.001 µM was 80%.

**Q.** What about the “Antiproliferative Activity” value ([9]; Salmeterol 0.000158 μM) of the same compound?
**A.** Its value is 38.1.

**Q.** What about the “Antiproliferative Activity” value ([9]; Salmeterol 0.000316 μM) of the same compound?
**A.** Its value is 47.7.

**Q.** What about the “Antiproliferative Activity” value ([9]; Salmeterol 0.00506 μM) of the same compound?
**A.** The value was 47.9.

**Q.** And the “colony number per 10,000 cells plated” value (RPMI-8226 cells)?
**A.** Its value is 360 colonies.

**Q.** And the “study day by which all animals of the group were removed” value [10]?
**A.** The value was no more than 43 study day.
